IC50 data for 19 compounds are collected here from patent US8017612B2, “Piperazine compound and use thereof as a HCV polymerase inhibitor” (priority 2006, dated 2011).

Test [1] deals with T1, HCV polymerase (NS5B) type 1a (Hepatitis C virus genotype 1a, UniProt P26664).
T1 construct: made in house; host or cells: Escherichia coli (by the 'similar method' of the 1b enzyme)
The test can be described thus: Assay of enzyme (HCV polymerase) inhibitory activity, type 1a enzyme. It is filed as biochemical, HCV type 1a (cloned from the blood of patients). The following applies: HCV polymerase inhibitory activity IC50, 1a, type 1a enzyme. A digest of the protocol: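 Patient-derived type 1a NS5B (C-terminal 47-aa deletion, His-tagged, E. coli-expressed) at 1.5 μg/ml was reacted with 5 μg/ml 3′UTR-containing substrate RNA, 50 μM ATP/GTP/CTP, 2 μM UTP plus [3H]UTP, pH 7.5, 25° C for 60 min. TCA-precipitated RNA radioactivity was counted; IC50 from ± compound.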

Test [2] addresses T2, HCV polymerase (NS5B) type 1b (Hepatitis C virus genotype 1b, UniProt P26663).
T2 construct: a region encoding NS5B (J Virol 1991 March, 65(3), 1105-13, 544 amino acids after deletion of 47 amino acids on the C-terminal); 6xHis (C); made in house; host or cells: Escherichia coli
The test can be described thus: Assay of enzyme (HCV polymerase) inhibitory activity, type 1b enzyme. It is filed as biochemical, HCV BK strain (type 1b). The following applies: HCV polymerase inhibitory activity IC50, 1b, type 1b enzyme. A digest of the protocol:
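NS5B from HCV BK strain (type 1b), C-terminal 47 aa deleted, C-terminal His6-tagged, E. coli-expressed, 0.5 μg/ml, with ~450 nt substrate RNA carrying the 3′ UTR (polyU, 3′X) at 5 μg/ml. Incubation 60 min at 25 °C with 50 μM ATP/GTP/CTP, 2 μM UTP plus [3H]UTP, pH 7.5 Tris.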

The term IC50 denotes the point on the concentration scale where inhibition reaches its midpoint. Read a high IC50 as lower potency. `O=C(NCc1ccc(OC(F)F)cc1)[C@H]1CN(c2nc3nc(C4CC4)ncc3s2)CCN1S(=O)(=O)c1ccc(OC(F)F)cc1` [Example 1014, (R)-4-(5-cyclopropyl-thiazolo[4,5-d]pyrimidin-2-yl)-1-(4-difluoromethoxy-benzenesulfonyl)-piperazine-2-carboxylic acid 4-difluoromethoxy-benzylamide]: the IC50 in test [1] and in test [2] was below 100 nM throughout.

As to `O=C(NCc1ccc(OC(F)F)cc1)[C@H]1CN(c2nc3nc(C(F)(F)F)ncc3s2)CCN1S(=O)(=O)c1ccc(OC(F)(F)C(F)F)cc1` [Example 1015, (R)-1-[4-(1,1,2,2-tetrafluoro-ethoxy)-benzenesulfonyl]-4-(5-trifluoromethyl-thiazolo[4,5-d]pyrimidin-2-yl)-piperazine-2-carboxylic acid 4-difluoromethoxy-benzylamide], the IC50 in test [1] and in test [2] was below 100 nM each time.

With `O=C(NCc1ccc(OC(F)(F)F)cc1)[C@H]1CN(c2nc3nc(C4CC4)ncc3s2)CCN1S(=O)(=O)c1ccc(OC(F)F)cc1` [Example 1016, (R)-4-(5-cyclopropyl-thiazolo[4,5-d]pyrimidin-2-yl)-1-(4-difluoromethoxy-benzenesulfonyl)-piperazine-2-carboxylic acid 4-trifluoromethoxy-benzylamide], the 50% inhibitory concentration (IC50) in test [1] and in test [2] was below 100 nM in each case.

For `O=C(NCc1ccc(OC(F)F)cc1)[C@H]1CN(c2nc3nc(C4CC4)ncc3s2)CCN1S(=O)(=O)c1ccc(OC(F)(F)F)cc1` [Example 1017, (R)-4-(5-cyclopropyl-thiazolo[4,5-d]pyrimidin-2-yl)-1-(4-trifluoromethoxy-benzenesulfonyl)-piperazine-2-carboxylic acid 4-difluoromethoxy-benzylamide], the half-maximal inhibitory concentration (IC50) in test [1] and in test [2] was below 100 nM each time.

`O=C(NCc1ccc(OC(F)F)cc1)[C@H]1CN(c2nc3nc(C4CC4)ncc3s2)CCN1S(=O)(=O)c1ccc(OC(F)(F)C(F)F)cc1` [Example 1018, (R)-4-(5-cyclopropyl-thiazolo[4,5-d]pyrimidin-2-yl)-1-[4-(1,1,2,2-tetrafluoro-ethoxy)-benzenesulfonyl]-piperazine-2-carboxylic acid 4-difluoromethoxy-benzylamide]: the IC50 in test [1] and in test [2] was below 100 nM in each case.

On to `Cc1cc(=O)nc2sc(N3CCN(S(=O)(=O)c4ccc(OC(F)(F)F)cc4)[C@@H](C(=O)NCc4ccc(OC(F)(F)F)cc4)C3)nn12` [Example 1019, (R)-4-(5-methyl-7-oxo-7H-[1,3,4]thiadiazolo[3,2-a]pyrimidin-2-yl)-1-(4-trifluoromethoxy-benzenesulfonyl)-piperazine-2-carboxylic acid 4-trifluoromethoxy-benzylamide], for which the half-inhibitory concentration (IC50) in test [1] and in test [2] was below 100 nM in each case.

On to `O=C(NCc1ccc(OC(F)(F)F)cc1)[C@H]1CN(c2nc3nc(C4CC4)ncc3s2)CCN1S(=O)(=O)c1ccc(OC(F)(F)C(F)F)cc1` [Example 1020, (R)-4-(5-cyclopropyl-thiazolo[4,5-d]pyrimidin-2-yl)-1-[4-(1,1,2,2-tetrafluoro-ethoxy)-benzenesulfonyl]-piperazine-2-carboxylic acid 4-trifluoromethoxy-benzylamide], for which the IC50 in test [1] and in test [2] was below 100 nM in each case.

Consider `Nc1nc(C(F)(F)F)nc2nc(N3CCN(S(=O)(=O)c4ccc(OC(F)(F)F)cc4)[C@@H](C(=O)NCc4ccc(OC(F)(F)F)cc4)C3)sc12` [Example 1021, (R)-4-(7-amino-5-trifluoromethyl-thiazolo[4,5-d]pyrimidin-2-yl)-1-(4-trifluoromethoxy-benzenesulfonyl)-piperazine-2-carboxylic acid 4-trifluoromethoxy-benzylamide], for which the 50% inhibitory concentration (IC50) in test [1] and in test [2] was below 100 nM each time.

For `COc1nc(C(F)(F)F)nc2nc(N3CCN(S(=O)(=O)c4ccc(OC(F)(F)F)cc4)[C@@H](C(=O)NCc4ccc(OC(F)(F)F)cc4)C3)sc12` [Example 1022, (R)-4-(7-methoxy-5-trifluoromethyl-thiazolo[4,5-d]pyrimidin-2-yl)-1-(4-trifluoromethoxy-benzenesulfonyl)-piperazine-2-carboxylic acid 4-trifluoromethoxy-benzylamide], the IC50 in test [1] and in test [2] was 100 to 1000 nM each time.

For the compound `O=C(NCc1ccc(OC(F)F)cc1)[C@H]1CN(c2nc3nc(C4CC4)ncc3s2)CCN1S(=O)(=O)c1ccc(C(F)(F)F)cc1` [Example 1023, (R)-4-(5-cyclopropyl-thiazolo[4,5-d]pyrimidin-2-yl)-1-(4-trifluoromethyl-benzenesulfonyl)-piperazine-2-carboxylic acid 4-difluoromethoxy-benzylamide], the IC50 in test [1] and in test [2] was below 100 nM throughout.

Take `CC(C)(C)c1ncc2sc(N3CCN(S(=O)(=O)c4ccc(OC(F)(F)F)cc4)[C@@H](C(=O)NCc4ccc(OC(F)(F)F)cc4)C3)nc2n1` [Example 1024, (R)-4-(5-tert-butyl-thiazolo[4,5-d]pyrimidin-2-yl)-1-(4-trifluoromethoxy-benzenesulfonyl)-piperazine-2-carboxylic acid 4-trifluoromethoxy-benzylamide]: the half-maximal inhibitory concentration (IC50) in test [1] and in test [2] was below 100 nM each time.

For the compound `CC(C)(C)c1ncc2sc(N3CCN(S(=O)(=O)c4ccc(C(F)(F)F)cc4)[C@@H](C(=O)NCc4ccc(OC(F)(F)F)cc4)C3)nc2n1` [Example 1025, (R)-4-(5-tert-butyl-thiazolo[4,5-d]pyrimidin-2-yl)-1-(4-trifluoromethyl-benzenesulfonyl)-piperazine-2-carboxylic acid 4-trifluoromethoxy-benzylamide], the IC50 in test [1] and in test [2] was below 100 nM in each case.

With `Cc1c(Cl)c(=O)nc2sc(N3CCN(S(=O)(=O)c4ccc(OC(F)(F)F)cc4)[C@@H](C(=O)NCc4ccc(OC(F)(F)F)cc4)C3)nn12` [Example 1026, (R)-4-(6-chloro-5-methyl-7-oxo-7H-[1,3,4]thiadiazolo[3,2-a]pyrimidin-2-yl)-1-(4-trifluoromethoxy-benzenesulfonyl)-piperazine-2-carboxylic acid 4-trifluoromethoxy-benzylamide], the concentration for half-maximal inhibition (IC50) in test [1] and in test [2] was below 100 nM in each case.

As to `Cc1cc(=O)nc2sc(N3CCN(S(=O)(=O)c4ccc(OC(F)(F)F)cc4)[C@@H](C(=O)NCc4ccc(OC(F)F)cc4)C3)nn12` [Example 1027, (R)-4-(5-methyl-7-oxo-7H-[1,3,4]thiadiazolo[3,2-a]pyrimidin-2-yl)-1-(4-trifluoromethoxy-benzenesulfonyl)-piperazine-2-carboxylic acid 4-difluoromethoxy-benzylamide], the IC50 in test [1] and in test [2] was below 100 nM throughout.

Turning to `Cc1cc(=O)nc2sc(N3CCN(S(=O)(=O)c4ccc(C(F)(F)F)cc4)[C@@H](C(=O)NCc4ccc(OC(F)(F)F)cc4)C3)nn12` [Example 1028, (R)-4-(5-methyl-7-oxo-7H-[1,3,4]thiadiazolo[3,2-a]pyrimidin-2-yl)-1-(4-trifluoromethyl-benzenesulfonyl)-piperazine-2-carboxylic acid 4-trifluoromethoxy-benzylamide], the IC50 in test [1] and in test [2] was below 100 nM in each case.

For the compound `Cc1nc(C(N)=O)c2sc(N3CCN(S(=O)(=O)c4ccc(OC(F)(F)F)cc4)[C@@H](C(=O)NCc4ccc(OC(F)(F)F)cc4)C3)nc2n1` [Example 1029, 5-methyl-2-[(R)-4-(4-trifluoromethoxy-benzenesulfonyl)-3-(4-trifluoromethoxy-benzylcarbamoyl)-piperazin-1-yl]-thiazolo[4,5-d]pyrimidine-7-carboxylic acid amide], the IC50 in test [1] is 100 to 1000 nM; in test [2] it was below 100 nM.

Turning to `Cn1ncc2sc(N3CCN(S(=O)(=O)c4ccc(C(F)(F)F)cc4)[C@@H](C(=O)NCc4ccc(OC(F)(F)F)cc4)C3)nc2c1=O` [Example 1030, (R)-4-(5-methyl-4-oxo-4,5-dihydro-thiazolo[4,5-d]pyridazin-2-yl)-1-(4-trifluoromethyl-benzenesulfonyl)-piperazine-2-carboxylic acid 4-trifluoromethoxy-benzylamide], the IC50 in test [1] and in test [2] was below 100 nM throughout.

`O=C(NCc1ccc(OC(F)(F)F)cc1)[C@H]1CN(c2nn3c(=O)c(C(F)(F)F)nnc3s2)CCN1S(=O)(=O)c1ccc(OC(F)(F)F)cc1` [Example 1031, (R)-4-(4-oxo-3-trifluoromethyl-4H-[1,3,4]thiadiazolo[2,3-c][1,2,4]triazin-7-yl)-1-(4-trifluoromethoxy-benzenesulfonyl)-piperazine-2-carboxylic acid 4-trifluoromethoxy-benzylamide]: the 50% inhibitory concentration (IC50) in test [1] and in test [2] was 100 to 1000 nM throughout.

On to `Cc1cc(=O)nc2sc(N3CCN(S(=O)(=O)c4ccc(C(F)(F)F)cc4)[C@@H](C(=O)NCc4ccc(OC(F)F)cc4)C3)nn12` [Example 1032, (R)-4-(5-methyl-7-oxo-7H-[1,3,4]thiadiazolo[3,2-a]pyrimidin-2-yl)-1-(4-trifluoromethyl-benzenesulfonyl)-piperazine-2-carboxylic acid 4-difluoromethoxy-benzylamide], for which the half-maximal inhibitory concentration (IC50) in test [1] and in test [2] was below 100 nM each time.
